The Kd is a measure of binding affinity in units of concentration. Broadly, the stoichiometry N is a count of units in the complex or per binding partner.

We go through twelve molecules from paper PMC8869731, “KasQ an Epimerase Primes the Biosynthesis of Aminoglycoside Antibiotic Kasugamycin and KasF/H Acetyltransferases Inactivate Its Activity” (Biomedicines, 2022).

Entries after “also recorded” stand apart in the source; their conditions may differ. Read-outs that look alike come from different tables or passages of the source.

Data set [1] addresses T1, KasQ (Streptomyces kasugaensis, UniProt A0A0K1H2R6). Put plainly: Isothermal titration calorimetry (ITC) of KasQ wild type versus substrates.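 For all read-outs here: titration of 1 mM substrate into 0.1 mM KasQ, 18 injections spaced 120 s, data fitted to a single-site binding model.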 The format is binding. The settings on record: KasQ wild type; for ∆G / ∆H / ∆S / Kd: ITC.
Protocol: (§3) ITC analyses were carried out at 25 °C using an ITC200 microcalorimeter (MicroCal Inc., Northampton, MA, USA). […] The titration experiment contains 18 injections (2 μL for a duration of 4 s) and each injection was separated by 120 s. The distilled water was filled in the reference cell throughout all titrations. The cell stirring speed was 1000 rpm. The collected raw data were processed in Origin 7.0 (provided by MicroCal) by a non-linear least square method to a single-site binding model.
The next data set addresses KasQ Q95E (Streptomyces kasugaensis, UniProt A0A0K1H2R6, Q95E). Put plainly: biochemical. The format is binding. The settings on record: for n: ITC binding stoichiometry; for n / ∆G / ∆H / ∆S: KasQ mutant Q95E; for ∆G / ∆H / ∆S: ITC. The procedure:
(§1) Site-directed mutagenesis was performed using QuikChange (Stratagene), following the manufacturer’s protocol. The wild-type KasQ plasmid (BCRC12349) was used as the template for the single mutation. All mutations were confirmed by DNA sequencing. KasQ mutants were expressed and purified with the same protocol as used for the wild-type protein.
(§2) The cell stirring speed was 1000 rpm.

The next data set addresses KasQ Q95A (Streptomyces kasugaensis, UniProt A0A0K1H2R6, Q95A). Put plainly: biochemical. The format is binding. The settings on record: for n: ITC binding stoichiometry; for n / ∆G / ∆H / ∆S: KasQ mutant Q95A; for ∆G / ∆H / ∆S: ITC. The procedure:
as §1, §2

The next data set addresses KasQ E308A (Streptomyces kasugaensis, UniProt A0A0K1H2R6, E308A). Put plainly: biochemical. Format: binding. On the procedure:
as §1, §2

Data set [2] has as its system E. coli BL21 (DE3) cells with/without the kasH or kasF gene. Briefly: Disc diffusion assay (resistance assay). Format: cell-based. On the procedure:
KSM susceptibility and production were confirmed by disc diffusion assay. An E. coli culture was grown at 37 °C overnight and spread on an LB agar plate (pH 7.0). About 5 µL of extracted samples from Streptomyces lividans TK64 (from days 2–5) were loaded onto the paper disc. The disc was placed onto the surface of an LB agar plate and incubated at 37 °C overnight to visualize the zone of inhibition (ZOI).
For the KSM resistant assay, BL21 cells with/without the kasH or kasF gene were individually expressed and seeded on LB agar plates (pH 7.0). About 5 µL of different aminoglycoside antibiotics (amikacin, gentamicin, sisomicin, streptothricin-F, or tobramycin) were loaded onto each paper disc and placed on the surface of the LB plates. The plates were incubated 37 °C overnight to visualize the appearance of the zone of inhibition (ZOI). Note: this is a standard protocol for evaluating the effectiveness of common antibiotics, including aminoglycosides; there is no apparent impact concerning the structural integrity or biological deterioration of the selected aminoglycosides at pH 7.0 during the examining course.
A general note: In agar diffusion tests the substance spreads into inoculated agar from a disc or well.

For data set [3], the target named is T2, KasH (Streptomyces kasugaensis, UniProt A0A0K1H2T0). Briefly: HPLC acetylation assay with KasH and AcCoA. The settings on record: 1 mM substrate, 0.5 mM AcCoA, 37 °C, 12 h. Format: biochemical.
For a further data set, the system named is KasF. Put plainly: HPLC acetylation assay with KasF and AcCoA. Format: biochemical, Streptomyces kasugaensis. The settings on record: 1 mM substrate, 0.5 mM AcCoA, 37 °C, 12 h.
Data set [4] has as its target T2, KasH. Briefly: ITC of KasH versus ligands.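 Note: isothermal titration calorimetry at 25 °C, 0.1 mM KasH in the cell titrated with 1 mM ligand over 18 injections, data fit with a one-site binding model.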
Protocol: as §3
Data set [5] concerns the target T1, KasQ. Briefly: HPLC kinetic analysis of KasQ epimerization. The format is biochemical. The settings on record: KasQ_WT with UDP-GlcNAc and 1 mM MgCl2, 25 mM Tris pH 8.0, 37 °C. The procedure: The reaction mixture was mixed by vortex and incubated at 37 °C. Reactions were stopped at six different time points (10, 30, 60, 120, 180, and 240 min) by adding equal volumes of chloroform. Precipitation was removed by centrifugation and analyzed by HPLC-LTQ-MS using HPLC method B as described above. […] The Michaelis–Menten curve of the KasQ activity was derived from the integrated peak area of each reaction.

The target of another data set is KasQ E308Q (Streptomyces kasugaensis, UniProt A0A0K1H2R6, E308Q). The format is binding. The settings on record: ITC; KasQ mutant E308Q. The procedure: as §1, §2
Chain of KasQ E308Q (A0A0K1H2R6 entry or part of it E308Q): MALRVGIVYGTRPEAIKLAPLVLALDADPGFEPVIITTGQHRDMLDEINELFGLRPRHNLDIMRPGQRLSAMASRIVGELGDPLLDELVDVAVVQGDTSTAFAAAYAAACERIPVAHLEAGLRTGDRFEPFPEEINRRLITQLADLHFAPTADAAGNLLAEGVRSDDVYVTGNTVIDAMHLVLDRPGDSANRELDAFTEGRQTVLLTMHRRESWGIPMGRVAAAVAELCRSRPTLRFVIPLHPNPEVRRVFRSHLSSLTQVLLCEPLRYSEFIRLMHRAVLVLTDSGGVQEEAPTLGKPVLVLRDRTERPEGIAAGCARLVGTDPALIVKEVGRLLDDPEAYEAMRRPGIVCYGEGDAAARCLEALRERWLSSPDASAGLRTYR
For data set [6], the target named is KasQ (Streptomyces kasugaensis). Put plainly: not stated; oligomeric state of the purified protein in solution (Figure S3: protein overexpression and purification); the method is not named in the text shown.
Data set [7] concerns the molecule itself. The description is as above.
[8] abbreviates: E. coli BL21 with/without the kasH or kasF gene, all conditions.
[9] abbreviates: 25 °C, 50 mM HEPES pH 8.0, 100 mM NaCl.

Chain of KasQ Q95A (A0A0K1H2R6 entry or part of it Q95A): as the sequence (A0A0K1H2R6 entry or part of it E308Q) above, with Q95A counted along it
Chain of KasQ E308A (A0A0K1H2R6 entry or part of it E308A): as the sequence (A0A0K1H2R6 entry or part of it E308Q) above
T1 sequence (A0A0K1H2R6 entry or part of it): as the sequence (A0A0K1H2R6 entry or part of it E308Q) above
Chain of KasQ Q95E (A0A0K1H2R6 entry or part of it Q95E): as the sequence (A0A0K1H2R6 entry or part of it E308Q) above, with Q95E counted along it

Turning to `O=C(O)[C@H]1O[C@H](OP(=O)(O)OP(=O)(O)OC[C@H]2O[C@@H](n3ccc(=O)[nH]c3=O)[C@H](O)[C@@H]2O)[C@H](O)[C@@H](O)[C@@H]1O` [UDP-GlcA], the n is on record as 1.5 ± 0.2 on KasQ [1] (ITC binding stoichiometry, 25 °C, 50 mM HEPES pH 8.0, 100 mM NaCl); 2.1 ± 0.1 on KasQ Q95E; 1.7 ± 0.0 at KasQ Q95A; 1.1 ± 0.7 on KasQ E308A (ITC binding stoichiometry, KasQ mutant E308A). Further, the “∆G” value at KasQ [1] was -5.61 ± 0.5751 kcal/mol; at KasQ Q95E it was -7.15 ± 0.0195 kcal/mol; at KasQ Q95A it was -5.922 ± 0.0847 kcal/mol; on KasQ E308A (ITC, KasQ mutant E308A), -5.421 ± 3.692 kcal/mol. The “∆H” value on KasQ [1] was -1.376 ± 0.5751 kcal/mol; on KasQ Q95E, -0.4413 ± 0.0195 kcal/mol; at KasQ Q95A, -0.6748 ± 0.0847 kcal/mol; on KasQ E308A (ITC, KasQ mutant E308A), -3.194 ± 3.692 kcal/mol. Moreover, the “∆S” value on KasQ [1] is listed as 14.2 cal mol^−1 K^−1; on KasQ Q95E, 22.5 cal mol-1 K-1; at KasQ Q95A, 17.6 cal mol-1 K-1; on KasQ E308A (ITC, KasQ mutant E308A), 7.47 cal mol-1 K-1. The dissociation constant Kd on KasQ [1] (25 °C, 50 mM HEPES pH 8.0, 100 mM NaCl, read-out: Kd) was found to be 76.3 ± 15.2 µM; at KasQ Q95E, 11.8 µM; on KasQ Q95A, 44.4 µM; at KasQ E308A, 106 µM.
On to `NCCC[C@H](N)CC(=O)N[C@@H]1[C@H](O)[C@@H](OC(N)=O)[C@@H](CO)O[C@H]1NC1=N[C@@H]2C(=O)NC[C@@H](O)[C@H]2N1` [streptothricin-F], for which the “zone of inhibition (ZOI)” value in data set [2] (setting [8]) was “appearance of ZOI in all conditions”.
As to `C[C@H]1O[C@H](O[C@H]2[C@H](O)[C@@H](O)[C@@H](O)[C@H](O)[C@@H]2O)[C@@H](N)C[C@@H]1NC(=N)C(=O)O` [KSM, Kasugamycin], the “acetylation by KasH” value at KasH [3] was “completely acetylated”. Also, the “acetylation by KasF” value with KasF is reported as “partially acetylated”. In data set [2] (E. coli BL21 (DE3) carrying the kasF gene, disc ~5 μL of 7.6 mg/mL KSM), the “growth of E. coli in the presence of KSM” value is “moderate growth”. For the same molecule, in data set [2] (E. coli BL21 (DE3) carrying the kasH gene, disc ~5 μL of 7.6 mg/mL KSM), the “growth of E. coli in the presence of KSM” value is recorded as “not affected”. Besides, the “zone of inhibition (ZOI)” value in data set [2] (E. coli BL21 (DE3) with empty pET28a+ (no acetyltransferase gene), disc ~5 μL of 7.6 mg/mL KSM) was “clear zone of inhibition”. Moreover, the n at KasH [4] (ITC binding stoichiometry, KasH, 50 mM MOPS pH 7.5, 100 mM NaCl) was found to be 1.0 ± 0.1. On KasH [4] (ITC, KasH), the “∆G” value is -5.804 ± 0.4705 kcal/mol, the “∆H” value is -2.316 ± 0.4705 kcal/mol and the “∆S” value is on record as 11.7 cal mol-1 K-1. Binding at KasH [4] (ITC, KasH, 50 mM MOPS pH 7.5, 100 mM NaCl) was put at a Kd of 56.1 µM. In addition, on KasH [4] (ITC, higher than AcCoA), the “binding affinity versus KasH relative to AcCoA” value is 2.9 fold. For the same molecule, the “binding affinity versus KasH relative to CoA” value on KasH [4] (ITC, higher than CoA) is given as 1.7 fold.
Regarding `CNC(C)C1CCC(N)C(OC2C(N)CC(N)C(OC3OCC(C)(O)C(NC)C3O)C2O)O1` (stereo not drawn) [gentamicin], in [2] (setting [8]), the “zone of inhibition (ZOI)” value is given as “appearance of ZOI in all conditions”.
As to `NC1C(OP(=O)(O)OP(=O)(O)OCC2OC(n3ccc(=O)[nH]c3=O)C(O)C2O)OC(CO)C(O)C1O` (stereo not drawn) [UDP-GlcNH2], the “acetylation by KasF” value in the data set with KasF is “not subject to acetylation of KasF; also recorded: could not observe the formation of UDP-GlcNAc”. On KasQ [1], the “∆G” value is “NBD”, the “∆H” value is listed as “NBD” and the “∆S” value was “NBD”. Besides, the Kd entry at KasQ [1] (setting [9]) is “Neither UDP-GlcNH2 that was enzymatically synthesized using the published procedure [38] nor AMP, ADP, ATP, GMP, GDP, or GTP shows detectable binding affinity and NBD”.
For `CN[C@@H]1[C@@H](O)[C@@H](O[C@@H]2[C@@H](O)[C@H](O[C@H]3OC(CN)=CC[C@H]3N)[C@@H](N)C[C@H]2N)OC[C@]1(C)O` [sisomicin], in data set [2] (setting [8]), the “zone of inhibition (ZOI)” value is “appearance of ZOI in all conditions”.
On the same count and under the same terms, next, `NCC[C@H](O)C(=O)N[C@@H]1C[C@H](N)[C@@H](O[C@H]2O[C@H](CN)[C@@H](O)[C@H](O)[C@H]2O)[C@H](O)[C@H]1O[C@H]1O[C@H](CO)[C@@H](O)[C@H](N)[C@H]1O` [amikacin]: “appearance of ZOI in all conditions”; `NC[C@H]1O[C@H](O[C@H]2[C@H](O)[C@@H](O[C@H]3O[C@H](CO)[C@@H](O)[C@H](N)[C@H]3O)[C@H](N)C[C@@H]2N)[C@H](N)C[C@@H]1O` [tobramycin]: “appearance of ZOI in all conditions”.
In the case of `CC(=O)NC1C(OP(=O)(O)OP(=O)(O)OCC2OC(n3ccc(=O)[nH]c3=O)C(O)C2O)OC(CO)C(O)C1O` (stereo not drawn) [UDP-GlcNAc 1, UDP-N-acetyl-glucosamine], the kcat was 1.33 (± 0.24) s^−1 on KasQ [5] (listed as UDP-GlcNAC) and 1.33 s⁻¹ at KasQ [5] (listed as UDP-GlcNAc). Further, the “∆G” value at KasQ [1] is “NBD”; at KasQ E308Q, “NBD”; on KasQ Q95E, -6.607 ± 0.0679 kcal/mol; at KasQ Q95A it was -5.939 ± 0.1764 kcal/mol; on KasQ E308A (ITC, KasQ mutant E308A), “NBD”. Also, the “∆H” value on KasQ [1] is “NBD”; on KasQ E308Q, “NBD”; at KasQ Q95E, -0.6141 ± 0.0679 kcal/mol; at KasQ Q95A, -0.7212 ± 0.1764 kcal/mol; at KasQ E308A (ITC, KasQ mutant E308A) it was “NBD”. The “∆S” value at KasQ [1] was “NBD”; at KasQ E308Q, “NBD”; on KasQ Q95E, 20.1 cal mol-1 K-1; on KasQ Q95A it was 17.5 cal mol-1 K-1; at KasQ E308A (ITC, KasQ mutant E308A) it was “NBD”. Moreover, the dissociation constant (Kd) entry on KasQ [1] (setting [9]) was “NBD”; on KasQ E308Q, “NBD”; at KasQ Q95E, 14.2 µM; at KasQ Q95A it was 45.2 µM; on KasQ E308A (ITC, KasQ mutant E308A), “NBD”. Moreover, the n on KasQ Q95E is reported as 0.7 ± 0.0; at KasQ Q95A it was 1.6 ± 0.1.
In data set [6], KasQ (enzyme) came in with a stoichiometry N of 2.
Regarding `NC[C@H]1O[C@H](O[C@H]2[C@H](O)[C@@H](O[C@H]3O[C@H](CO)[C@@H](O)[C@H](N)[C@H]3O)[C@H](N)C[C@@H]2N)[C@H](N)[C@@H](O)[C@@H]1O` [kanamycin B], the “zone of inhibition (ZOI)” value in data set [2] (setting [8]) is recorded as “appearance of ZOI in all conditions”.

B1: KasH (enzyme, Streptomyces kasugaensis, UniProt A0A0K1H2T0 1-130, looked up)
chain: MTITYEWRGGFDNAALNALHADGFGPPIAQTDWRTRLERHSLGWVCAWEDGLIGFVNVVWDGGAHAFILDTVVARHCRSRGVGAALVAKAADEARAANCEWLHVDFEEHLRAFYFDACGFKETTAGLIAL
notes: KasH, acetyltransferase of the kasugamycin biosynthetic gene cluster, Streptomyces kasugaensis; gene amplified and cloned into pET28a+; also called acetyltransferase KasH; source: E. coli BL21, purified (Ni-agarose, gel filtration)
Turning to B1, the “stoichiometry N” value in data set [7] came to 2.
